Assays:
[1] = Dye penetration from polyurethane coating on silicone sheets into calf liver tissue; format: in vitro ADME; settings: 1% dye in TPU matrix on silicone rubber sheet placed against calf liver for 24 or 48 hours
Description: Mitoxantrone, and ciprofloxacin were likewise tested.
Dyes and drugs were first coated onto silicone rubber sheets as droplets, and dried at 70° C. overnight. To gain a first approximation of the ability of the dyes to penetrate tissue, the sheets were placed against the outer membrane of calf liver, either for 24 or 48 hours. The tissue was placed on top of the sheet and supplied with nothing more that the pressure of the tissue against the sheet.

[2] = Dye penetration from coated stents into excised human prostate tissue; settings: dye bands on stent in excised prostate, 37° C., after 48 hours
Description: As to materials, acidic, basic or lipophilic dyes, with molecular weights in the range of 3-400, were used, including: crystal violet (MW 408); basic Nile blue (MW 300); Nile red lipophilic; oil red O lipophilic; erythrosin (MW 890) acidic; and, methylene blue (MW 319) acidic. Mitoxantrone, and ciprofloxacin were likewise tested. The dyes and agents were mixed in a thermoplastic polyurethane (TPU) matrix comprising of 30/70 weight ratio of Carbothane® 72D, an aliphatic, polycarbonate based TPU, to Tecophil®, a hydrophilic, aliphatic, polyether-based TPU (Noveon, Inc.) in a 50/50 mixture of DMAC and THF. The polymers were prepared, 5% by weight, with dyes or agents added to the mixture as an additional 1% by weight.
Human prostate tissue was obtain postmortem, and within 24 hours thereof, and flash froze. The tissue was thereafter thawed at ambient temperature, and used within 12 hours. The tissue was not fixed.
Six dyes, namely, methylene blue, crystal violet, a combination of Nile blue and Nile red, oil red O, and erythrosin were coated onto two stents in the form of 3 mm bands or rings. One stent was coated with both mitoxantrone, and ciprofloxacin. Thereafter, the stents were placed in a phosphate buffered Ringer's solution with 1% virocide into excised prostates for 24 and 48 hours at 37° C. […]

SMILES	penetration / staining of liver tissue [1]	staining of prostatic tissue [2]
CN(C)c1ccc(C(=C2C=CC(=[N+](C)C)C=C2)c2ccc(N(C)C)cc2)cc1 [crystal violet]	penetrated the tissue to the greatest extent	
Cc1ccc(C)c(N=Nc2cc(C)c(N=Nc3c(O)ccc4ccccc34)cc2C)c1 [oil red O]	only mildly stained the tissue	staining the least
O.O=C([O-])c1ccccc1-c1c2cc(I)c(=O)c(I)c-2oc2c(I)c([O-])c(I)cc12.[Na+].[Na+] [erythrosin]		approximately equivalent
CCN(CC)c1ccc2nc3c4ccccc4c(=O)cc-3oc2c1 [Nile red]	only mildly stained the tissue	

From US20100241219A1, “MEDICAMENT DELIVERY ARTICLE, ACCESSORY & SYSTEM” (ABBEYMOOR MEDICAL , INC, priority 2005, published 2010)
